From US20260207602A1, “EGFR INHIBITORS” (Blueprint Medicines Corporation, priority 2022, published 2026)

How the values were obtained:
[1] = target: T1, EGFR (d746-750) (Homo sapiens, UniProt P00533, DEL746-750); assay: Biochemical EGFR inhibition assay (Caliper mobility shift), EGFR (d746-750); conditions: biochemical Caliper mobility shift assay, EGFR Exon 19-del enzyme; read-out: Enz EGFR Exon 19-del IC50
T1 construct: purchased SignalChem E10-122JG
How it was run: (§1)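 Mobility-shift readout: phosphorylated and unphosphorylated 5-FAM peptide (2.5 µM) separated electrophoretically. Reactions at room temperature (25 °C), 1.0 mM ATP or ATP Km, HEPES pH 7.5 with MgCl2, Brij-35, DTT and 1.0% DMSO; terminated at 10–20% turnover with 35 mM EDTA. Apparent IC50 fitted.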

[2] = target: T2, EGFR L858R (Homo sapiens, UniProt P00533, L858R); assay: Biochemical EGFR inhibition assay (Caliper mobility shift), EGFR L858R; conditions: biochemical Caliper mobility shift assay, EGFR L858R enzyme; read-out: Enz EGFR L858R IC50
T2 construct: purchased SignalChem E10-122BG
T2 sequence (P00533 25-1210 L858R): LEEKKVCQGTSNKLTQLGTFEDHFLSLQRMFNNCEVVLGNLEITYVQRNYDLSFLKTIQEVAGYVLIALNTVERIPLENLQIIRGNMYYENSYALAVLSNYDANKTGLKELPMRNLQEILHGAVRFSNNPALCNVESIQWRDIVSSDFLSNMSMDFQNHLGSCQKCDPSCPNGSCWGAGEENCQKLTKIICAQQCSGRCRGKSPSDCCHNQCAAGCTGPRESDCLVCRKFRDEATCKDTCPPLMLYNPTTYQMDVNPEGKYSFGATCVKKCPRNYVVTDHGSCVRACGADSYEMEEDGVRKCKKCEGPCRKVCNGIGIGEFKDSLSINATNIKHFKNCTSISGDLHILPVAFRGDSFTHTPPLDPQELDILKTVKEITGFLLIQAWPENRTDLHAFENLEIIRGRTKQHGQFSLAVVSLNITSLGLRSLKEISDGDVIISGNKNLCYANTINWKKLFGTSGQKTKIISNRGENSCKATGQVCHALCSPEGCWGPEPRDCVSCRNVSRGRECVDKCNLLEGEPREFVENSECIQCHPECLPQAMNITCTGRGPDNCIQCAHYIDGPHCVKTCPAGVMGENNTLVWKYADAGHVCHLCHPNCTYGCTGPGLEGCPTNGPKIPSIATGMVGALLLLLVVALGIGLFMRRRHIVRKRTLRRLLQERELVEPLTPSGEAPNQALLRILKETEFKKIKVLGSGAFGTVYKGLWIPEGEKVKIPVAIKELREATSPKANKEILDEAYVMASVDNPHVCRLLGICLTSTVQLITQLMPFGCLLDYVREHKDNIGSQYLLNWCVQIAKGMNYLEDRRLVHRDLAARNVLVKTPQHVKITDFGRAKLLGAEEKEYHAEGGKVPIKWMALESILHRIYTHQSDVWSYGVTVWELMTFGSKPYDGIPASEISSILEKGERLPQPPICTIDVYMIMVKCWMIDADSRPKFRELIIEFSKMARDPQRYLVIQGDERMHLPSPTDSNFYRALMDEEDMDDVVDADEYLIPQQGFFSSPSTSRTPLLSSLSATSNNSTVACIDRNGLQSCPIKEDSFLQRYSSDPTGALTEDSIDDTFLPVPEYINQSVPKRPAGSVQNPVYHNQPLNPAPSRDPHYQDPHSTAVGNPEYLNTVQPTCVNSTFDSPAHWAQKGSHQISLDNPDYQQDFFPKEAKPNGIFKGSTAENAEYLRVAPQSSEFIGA
How it was run: as §1

[3] = target: intracellular phosphorylation of EGFR (Tyr1068) in PC-9 cells (Homo sapiens, UniProt P00533, DEL746-750); assay: PC-9 pEGFR AlphaLISA assay; type: cell-based; conditions: 4 hours incubation, read-out: Phos EGFR PC9 IC50
intracellular phosphorylation of EGFR (Tyr1068) in PC-9 cells, sequence (P00533 with tags, fused parts or gaps DEL746-750): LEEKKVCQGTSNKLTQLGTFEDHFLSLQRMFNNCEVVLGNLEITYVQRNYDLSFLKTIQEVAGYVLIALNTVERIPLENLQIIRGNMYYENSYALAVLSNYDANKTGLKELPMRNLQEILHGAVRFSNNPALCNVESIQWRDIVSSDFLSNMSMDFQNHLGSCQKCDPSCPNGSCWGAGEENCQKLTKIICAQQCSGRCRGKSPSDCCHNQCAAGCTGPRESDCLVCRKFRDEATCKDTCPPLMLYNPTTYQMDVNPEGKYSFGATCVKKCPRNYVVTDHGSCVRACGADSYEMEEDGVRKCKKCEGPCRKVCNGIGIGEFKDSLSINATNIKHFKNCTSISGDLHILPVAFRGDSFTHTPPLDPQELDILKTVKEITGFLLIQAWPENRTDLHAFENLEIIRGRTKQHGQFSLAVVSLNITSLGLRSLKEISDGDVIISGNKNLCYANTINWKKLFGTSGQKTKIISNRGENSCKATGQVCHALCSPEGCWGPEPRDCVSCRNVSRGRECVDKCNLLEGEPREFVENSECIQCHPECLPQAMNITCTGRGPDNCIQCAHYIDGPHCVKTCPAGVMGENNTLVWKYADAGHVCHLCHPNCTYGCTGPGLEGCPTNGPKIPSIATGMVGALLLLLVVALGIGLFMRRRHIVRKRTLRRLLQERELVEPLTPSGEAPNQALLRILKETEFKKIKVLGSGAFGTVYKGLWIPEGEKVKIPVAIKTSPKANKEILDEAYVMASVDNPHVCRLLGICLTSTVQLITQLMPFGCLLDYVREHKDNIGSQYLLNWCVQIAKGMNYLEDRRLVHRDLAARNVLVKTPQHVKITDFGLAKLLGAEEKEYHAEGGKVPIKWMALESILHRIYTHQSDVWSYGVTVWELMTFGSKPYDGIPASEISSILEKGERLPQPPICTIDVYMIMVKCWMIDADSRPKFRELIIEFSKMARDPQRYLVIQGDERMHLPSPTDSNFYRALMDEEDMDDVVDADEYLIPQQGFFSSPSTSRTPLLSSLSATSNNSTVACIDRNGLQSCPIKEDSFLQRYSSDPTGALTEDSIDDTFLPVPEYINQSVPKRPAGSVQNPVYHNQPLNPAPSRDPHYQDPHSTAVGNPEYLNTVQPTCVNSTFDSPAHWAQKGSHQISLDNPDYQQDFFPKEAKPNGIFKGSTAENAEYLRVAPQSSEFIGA
How it was run: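 PC-9 cells (EGFR del746-750) in phenol-free DMEM/10% FBS, adhered overnight, then exposed to 10-point 4-fold compound dilutions for 4 h at 37 °C. Lysates assayed for pEGFR Tyr1068 by AlphaLISA SureFire Ultra; IC50 from percent pEGFR inhibition vs log concentration.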

T1 sequence (P00533 with tags, fused parts or gaps DEL746-750 limits assumed): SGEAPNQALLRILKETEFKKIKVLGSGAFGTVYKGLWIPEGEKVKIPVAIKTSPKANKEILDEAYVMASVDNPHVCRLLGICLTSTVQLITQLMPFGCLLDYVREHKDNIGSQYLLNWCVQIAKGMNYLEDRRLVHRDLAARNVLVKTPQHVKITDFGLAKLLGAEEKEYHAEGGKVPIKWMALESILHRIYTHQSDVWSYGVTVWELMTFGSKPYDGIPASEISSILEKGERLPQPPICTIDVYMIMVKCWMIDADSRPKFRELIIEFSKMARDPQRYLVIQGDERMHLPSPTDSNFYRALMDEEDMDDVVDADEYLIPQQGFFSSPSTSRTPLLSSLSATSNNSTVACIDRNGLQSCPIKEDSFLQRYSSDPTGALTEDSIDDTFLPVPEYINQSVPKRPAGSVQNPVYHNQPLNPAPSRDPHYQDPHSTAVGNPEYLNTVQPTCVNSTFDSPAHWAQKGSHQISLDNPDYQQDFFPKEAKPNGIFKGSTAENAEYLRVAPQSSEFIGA

Compound	IC50 [1]	IC50 [2]	IC50 [3]
COc1cc2ncnc(Nc3ccc4ncsc4c3)c2cc1-c1cnn(C2CCN(C)CC2)c1 [Example 163, N-(7-methoxy-6-(1-(1-methylpiperidin-4-yl)-1H-pyrazol-4-yl)quinazolin-4-yl)benzo[d]thiazol-6-amine]	≤ 10 nM	≤ 10 nM	≤ 10 nM
Cn1cc(-c2cc(OCC3CCOC3)c3c(Nc4ccc5ncsc5c4)ncnc3c2)cn1 (single isomer, unassigned) [Example 41]	≤ 10 nM	≤ 10 nM	10.1 to 50 nM
COc1cc(O[C@H](C)C2COC2)c2c(Nc3ccc4ncsc4c3F)ncnc2c1 (single isomer, unassigned) [Example 83]	≤ 10 nM	≤ 10 nM	≤ 10 nM
CN1CC[C@@](C)(COc2cc(-c3cnn(C)c3)cc3ncnc(Nc4ccc5ncsc5c4)c23)C1=O (single isomer, unassigned) [Example 55]	≤ 10 nM	≤ 10 nM	10.1 to 50 nM
C[C@H](CN(C)C)Oc1cc(N2CCOCC2)cc2ncnc(Nc3ccc4ncsc4c3F)c12 [Example 183, (R)-N-(5-((1-(dimethylamino)propan-2-yl)oxy)-7-morpholinoquinazolin-4-yl)-7-fluorobenzo[d]thiazol-6-amine]	≤ 10 nM	10.1 to 50 nM	10.1 to 50 nM
C[C@@H](CN(C)C)Oc1cc(N2CCN(C)CC2)cc2ncnc(Nc3ccc4ncsc4c3)c12 (single isomer, unassigned) [Example 116]	10.1 to 50 nM	> 50.1 nM	> 50.1 nM
CC(Oc1cc(-c2cn[nH]c2)cc2ncnc(Nc3ccc4ncsc4c3)c12)C1COC1 (single isomer, unassigned) [Example 122]	≤ 10 nM	≤ 10 nM	≤ 10 nM
Cn1cc(-c2cc(OC[C@H]3CCCO3)c3c(Nc4ccc5ncsc5c4)ncnc3c2)cn1 [Example 31, (R)-N-(7-(1-methyl-1H-pyrazol-4-yl)-5-((tetrahydrofuran-2-yl)methoxy)quinazolin-4-yl)benzo[d]thiazol-6-amine]	≤ 10 nM	≤ 10 nM	10.1 to 50 nM
C[C@@H](Oc1cc(-c2cnn(C)c2)cc2ncnc(Nc3ccc4ncsc4c3)c12)[C@H]1CNCCO1 (single isomer, unassigned) [Example 207]	≤ 10 nM	≤ 10 nM	≤ 10 nM
COC[C@H](CN(C)C)Oc1cc(-c2cnn(C)c2)cc2ncnc(Nc3ccc4ncsc4c3)c12 [Example 141, (S)-N-(5-((1-(dimethylamino)-3-methoxypropan-2-yl)oxy)-7-(1-methyl-1H-pyrazol-4-yl)quinazolin-4-yl)benzo[d]thiazol-6-amine]	≤ 10 nM	10.1 to 50 nM	10.1 to 50 nM
c1nc(Nc2ccc3ncsc3c2)c2c(OC3CCOCC3)cc(N3CC4CC(C3)O4)cc2n1 [Example 199, N-(7-(6-oxa-3-azabicyclo[3.1.1]heptan-3-yl)-5-((tetrahydro-2H-pyran-4-yl)oxy)quinazolin-4-yl)benzo[d]thiazol-6-amine]	≤ 10 nM	≤ 10 nM	10.1 to 50 nM
Cn1cc(-c2cc(O[C@@H]3CC[C@H]3O)c3c(Nc4ccc5ncsc5c4)ncnc3c2)cn1 [Example 186, (1R,2R)-2-((4-(benzo[d]thiazol-6-ylamino)-7-(1-methyl-1H-pyrazol-4-yl)quinazolin-5-yl)oxy)cyclobutan-1-ol]	≤ 10 nM	≤ 10 nM	≤ 10 nM
CN1CCC(Oc2cc(-c3cnn(C)c3)cc3ncnc(Nc4ccc5ncsc5c4)c23)C(F)(F)C1 (stereo not drawn) [Example 2, N-(5-((3,3-difluoro-1-methylpiperidin-4-yl)oxy)-7-(1-methyl-1H-pyrazol-4-yl)quinazolin-4-yl)benzo[d]thiazol-6-amine]	≤ 10 nM	≤ 10 nM	≤ 10 nM
COc1nn(C)cc1-c1cc(OC2COC2)c2c(Nc3ccc4ncsc4c3)ncnc2c1 [Example 18, N-(7-(3-methoxy-1-methyl-1H-pyrazol-4-yl)-5-(oxetan-3-yloxy)quinazolin-4-yl)benzo[d]thiazol-6-amine]	≤ 10 nM	≤ 10 nM	≤ 10 nM

Now from value to compound:

IC50 [1]	IC50 [2]	IC50 [3]	Compound
≤ 10 nM	≤ 10 nM	≤ 10 nM	COCCN1CCC(Oc2cc(-c3cn(C)nc3OC)cc3ncnc(Nc4ccc5ncsc5c4)c23)CC1 [Example 305, N-(7-(3-methoxy-1-methyl-1H-pyrazol-4-yl)-5-((1-(2-methoxyethyl)piperidin-4-yl)oxy)quinazolin-4-yl)benzo[d]thiazol-6-amine]
≤ 10 nM	≤ 10 nM	≤ 10 nM	CN1CCC(Nc2cc3c(Nc4ccc5ncsc5c4)ncnc3cc2-c2ccn(C)n2)CC1 [Example 258, N4-(benzo[d]thiazol-6-yl)-7-(1-methyl-1H-pyrazol-3-yl)-N6-(1-methylpiperidin-4-yl)quinazoline-4,6-diamine]
≤ 10 nM	≤ 10 nM	≤ 10 nM	COc1cc2ncnc(Nc3ccc4ncsc4c3F)c2cc1-c1cnn(C2CCN(C)CC2)c1 [Example 240, 7-fluoro-N-(7-methoxy-6-(1-(1-methylpiperidin-4-yl)-1H-pyrazol-4-yl)quinazolin-4-yl)benzo[d]thiazol-6-amine]
≤ 10 nM	10.1 to 50 nM	≤ 10 nM	CNC[C@@H](C)Oc1cc(-c2cnn(C)c2)cc2ncnc(Nc3ccc4ncsc4c3)c12 [Example 396, (R)-N-(7-(1-methyl-1H-pyrazol-4-yl)-5-((1-(methylamino)propan-2-yl)oxy)quinazolin-4-yl)benzo[d]thiazol-6-amine]
≤ 10 nM	≤ 10 nM	≤ 10 nM	Cn1cc(-c2cc(O[C@H]3CC[C@@H](N)CC3)c3c(Nc4ccc5ncsc5c4)ncnc3c2)cn1 [Example A09, N-(5-(((1s,4s)-4-aminocyclohexyl)oxy)-7-(1-methyl-1H-pyrazol-4-yl)quinazolin-4-yl)benzo[d]thiazol-6-amine]
≤ 10 nM	≤ 10 nM	10.1 to 50 nM	Cn1cc(-c2cc(OC3CCN(CCO)CC3)c3c(Nc4ccc5ncsc5c4)ncnc3c2)cn1 [Example 312, 2-(4-((4-(benzo[d]thiazol-6-ylamino)-7-(1-methyl-1H-pyrazol-4-yl)quinazolin-5-yl)oxy)piperidin-1-yl)ethan-1-ol]
≤ 10 nM	≤ 10 nM	≤ 10 nM	COC[C@@H](C)Oc1cc(-n2cc(C(C)(C)O)cn2)cc2ncnc(Nc3ccc4ncsc4c3F)c12 [Example A26, (R)-2-(1-(4-((7-fluorobenzo[d]thiazol-6-yl)amino)-5-((1-methoxypropan-2-yl)oxy)quinazolin-7-yl)-1H-pyrazol-4-yl)propan-2-ol]
≤ 10 nM	≤ 10 nM	10.1 to 50 nM	CN1CCN(C(=O)COc2cc(-c3cnn(C)c3)cc3ncnc(Nc4ccc5ncsc5c4F)c23)CC1 [Example 275, 2-((4-((7-fluorobenzo[d]thiazol-6-yl)amino)-7-(1-methyl-1H-pyrazol-4-yl)quinazolin-5-yl)oxy)-1-(4-methylpiperazin-1-yl)ethan-1-one]
≤ 10 nM	≤ 10 nM	≤ 10 nM	Cn1cc(-c2cc(O[C@@H]3CC[C@@H]3O)c3c(Nc4ccc5ncsc5c4)ncnc3c2)cn1 (single isomer, unassigned) [Example A51]
≤ 10 nM	≤ 10 nM	≤ 10 nM	CN1CC[C@H](Oc2cc(-c3cnn(C)c3)cc3ncnc(Nc4ccc5ncsc5c4)c23)[C@@H](F)C1 (racemic) [Example 343, trans-N-(5-(((3S,4S)-3-fluoro-1-methylpiperidin-4-yl)oxy)-7-(1-methyl-1H-pyrazol-4-yl)quinazolin-4-yl)benzo[d]thiazol-6-amine]
≤ 10 nM	≤ 10 nM	≤ 10 nM	CCN1CCC(Oc2cc(-c3cnn(C)c3)cc3ncnc(Nc4ccc5ncsc5c4)c23)CC1 [Example 309, N-(5-((1-ethylpiperidin-4-yl)oxy)-7-(1-methyl-1H-pyrazol-4-yl)quinazolin-4-yl)benzo[d]thiazol-6-amine]
≤ 10 nM	≤ 10 nM	10.1 to 50 nM	CN1CC[C@H](Oc2cc(-c3cnn(C)c3)cc3ncnc(Nc4ccc5ncsc5c4)c23)[C@@H](O)C1 (single isomer, unassigned) [Example A35]
≤ 10 nM	≤ 10 nM	≤ 10 nM	C[C@@H](Oc1cc(-c2cnn(C)c2)cc2ncnc(Nc3ccc4ncsc4c3)c12)[C@H]1CN(C)CCO1 (single isomer, unassigned) [Example 209]
≤ 10 nM	≤ 10 nM	≤ 10 nM	CN1CC[C@@H](Oc2cc(-c3cnn(C)c3)cc3ncnc(Nc4ccc5ncsc5c4)c23)[C@@H](F)C1 (single isomer, unassigned) [Example 340]
≤ 10 nM	≤ 10 nM	10.1 to 50 nM	COc1nn(C)cc1-c1cc(O[C@@H]2CN(C)C[C@H]2F)c2c(Nc3ccc4ncsc4c3)ncnc2c1 (racemic) [Example 376, N-(5-(((3S,4S)-4-fluoro-1-methylpyrrolidin-3-yl)oxy)-7-(3-methoxy-1-methyl-1H-pyrazol-4-yl)quinazolin-4-yl)benzo[d]thiazol-6-amine and N-(5-(((3R,4R)-4-fluoro-1-methylpyrrolidin-3-yl)oxy)-7-(3-methoxy-1-methyl-1H-pyrazol-4-yl)quinazolin-4-yl)benzo[d]thiazol-6-amine]
